Legend:
[1] = test system: STZ-induced diabetic rats; assay: von Frey test in rat STZ-induced diabetes model; format: in vivo; conditions: for 50% withdrawal threshold by von Frey test: mean ± SE, n=10
Description: The activity of the compound of the present disclosure was evaluated according to the following procedure.
(§1) Compound 9 (50 mg/mL) was diluted with water for injection to obtain a 1 mg/mL administration specimen. For the specimens to be administered at 0.1 mg/mL and 0.01 mg/mL, the specimen to be administered at 1 mg/mL was diluted stepwise with water for injection. Each administration specimen was divided into PP disposable tubes every day and stored in a storehouse (freezer: MDF-MU339H-PJ, PHC Corporation) under the condition of freezing (−30° C. to −20° C., measured value: −26.4 to −24.5° C.). Preparation was performed on the day before the start of administration.
(§2) Water for injection was added to and dissolved in Pregabalin taken out from the capsule to obtain 2 mg/mL. It was prepared before use.
(§3) • Animal species: rat (SPF) • Strain: Crl: CD (SD) • Date of animal acquisition, gender, age in weeks, number of animals acquired, and weight range after 1 day of acquisition • First and second courses: Apr. 6, 2022, male, 7 weeks old, 35 animals, 217 to 237 g • Third and fourth courses: Apr. 13, 2022, male, 7 weeks old, 35 animals, 216 to 235 g • Source: […].
Among the animals having a 50% withdrawal threshold of 8 g or more in the von Frey test measured during the preliminary breeding period, two animals from young animals with animal numbers were assigned to non-diabetes-induced animals, and the remaining animals were assigned to diabetes-induced animals.
Among the diabetes-induced animals, animals having a blood glucose level of 300 mg/dL or less were excluded from the grouping subjects, and were grouped using a computer program (IBUKI, Nihon Bioresearch Center, Inc.) so that the body weight and the average blood glucose level of each group were approximately equal. That is, the animals for the first and second courses and the third and fourth courses were grouped into one non-diabetes animal for Group 1, and 5 […] animals for Groups 2 to 6. Note that the grouping was performed so that there were 4 examples in Group 1 and 10 examples in each of Groups 2 to 6.
• Administration method: Using a syringe (Terumo Corporation) equipped with a 25 G winged injection needle (Terumo Corporation), tail vein administration was performed. Note that a 0.75 mmol/L CAB solution was administered to a non-diabetes-induced control group.
(§4) • Dose volume: calculated at 2 mL/kg based on the body weight on the day of administration. • Number of times of administration: once • Day of administration: 7 days before the day of starting administration of the test substance.
• Administration method: Using a syringe (Terumo Corporation) equipped with a 25 G winged injection needle (Terumo Corporation), tail vein administration was performed. Note that physiological saline was administered to the non-diabetes control group and the diabetes control group.
(§5) • Dose volume: calculated at 1 mL/kg based on the body weight on the day of administration. • Number of times of administration: 9 times • Interval of administration: once every 3 days (evaluation was performed on the day after administration) • Day of starting administration: day 8 of STZ administration (day of STZ administration is counted as day 1).
• Administration method: Using a polypropylene disposable syringe (Terumo Corporation) equipped with a metal oral zonde for a rat (Fuchigami kikai Ltd.), forced oral administration was performed.
• Dose volume: calculated at 10 mL/kg based on the body weight on the day of administration. • Number of times of administration: Administration was performed once on the day of evaluation of neuropathic pain, twice in total, and on the other days of administration, a vehicle for a control substance (water for injection) was orally administered. […]

[2] = Body weight measurement in rat STZ-induced diabetes model; format: in vivo; conditions: 20 mg/kg oral, mean ± SE, in g (unit assumed)
Description: as §1, §2, §3, §4, §5
• Dose volume: calculated at 10 mL/kg based on the body weight on the day of administration. • Number of times of administration: Administration was performed once on the day of evaluation of neuropathic pain, twice in total, and on the other days of administration, a vehicle for a control substance (water for injection) was orally administered.
• Measurement was performed every day after the day of STZ administration.
The mean and standard error of each group were calculated for the 50% withdrawal threshold, body weight, and blood glucose level.
The body weight was an integer.
No significant difference test of body weight and blood glucose levels was performed.

CC(C)C[C@H](CN)CC(=O)O [Pregabalin, reference compound]
50% withdrawal threshold by von Frey test ([1]; 20 mg/kg oral group, Pre: before STZ administration): 12.7 ± 0.7 g
50% withdrawal threshold by von Frey test ([1]; 20 mg/kg oral, 3 hours after administration, day 14 of STZ administration): 14.5 ± 0.5 g
50% withdrawal threshold by von Frey test ([1]; 20 mg/kg oral, 3 hours after administration, day 28 of STZ administration): 14.1 ± 0.7 g
change in the 50% withdrawal threshold (von Frey test) ([1]; 20 mg/kg oral, both 14 days and 28 days after STZ administration, as compared with the diabetes control group): significant increase
Body weight ([2]; day 1 of STZ administration): 293 ± 5
Body weight ([2]; day 2 of STZ administration): 278 ± 5
Body weight ([2]; day 3 of STZ administration): 272 ± 5
Body weight ([2]; day 4 of STZ administration): 275 ± 4
Body weight ([2]; day 5 of STZ administration): 280 ± 4
Body weight ([2]; day 6 of STZ administration): 282 ± 4
Body weight ([2]; day 7 of STZ administration): 288 ± 4
Body weight ([2]; day 8 of STZ administration): 285 ± 4
Body weight ([2]; day 9 of STZ administration): 289 ± 4
Body weight ([2]; day 10 of STZ administration): 291 ± 5
Body weight ([2]; day 11 of STZ administration): 297 ± 4
Body weight ([2]; day 12 of STZ administration): 297 ± 5
Body weight ([2]; day 13 of STZ administration): 298 ± 5
Body weight ([2]; day 14 of STZ administration): 302 ± 6
Body weight ([2]; day 15 of STZ administration): 297 ± 4
Body weight ([2]; day 16 of STZ administration): 300 ± 5
Body weight ([2]; day 17 of STZ administration): 304 ± 5
Body weight ([2]; day 18 of STZ administration): 303 ± 5
Body weight ([2]; day 19 of STZ administration): 302 ± 6
Body weight ([2]; day 20 of STZ administration): 308 ± 5
Body weight ([2]; day 21 of STZ administration): 305 ± 6
Body weight ([2]; day 22 of STZ administration): 309 ± 5
Body weight ([2]; day 23 of STZ administration): 307 ± 7
Body weight ([2]; day 24 of STZ administration): 305 ± 7
Body weight ([2]; day 25 of STZ administration): 307 ± 6
Body weight ([2]; day 26 of STZ administration): 309 ± 6
Body weight ([2]; day 27 of STZ administration): 304 ± 7
Body weight ([2]; day 28 of STZ administration): 307 ± 7
Body weight ([2]; day 29 of STZ administration): 302 ± 7
Body weight ([2]; day 30 of STZ administration): 302 ± 7
Body weight ([2]; day 31 of STZ administration): 304 ± 8
Body weight ([2]; day 32 of STZ administration): 305 ± 8
Body weight ([2]; day 33 of STZ administration): 307 ± 8
Body weight ([2]; day 34 of STZ administration): 306 ± 7
Body weight ([2]; day 35 of STZ administration): 307 ± 7
